Values of other authors as cited in PMC6384891, “An automated microliter-scale high-throughput screening system (MSHTS) for real-time monitoring of protein aggregation using quantum-dot nanoprobes” (Scientific Reports, 2019).

Tested on: Aβ
Set-up: method as in PMID 15511626
Details: cited from earlier work

## Tannic acid
  inhibition of Aβ aggregation (in words): dose-dependently inhibited
